Results: patent publication US9079907B2, “Fused heterocyclic compound and use thereof” (TAKEDA PHARMACEUTICAL COMPANY LIMITED, priority 2006, dated 2015)
Where a name gives a salt, the structure may show the parent alone.

Molecular target: serotonin 5-HT2C receptor (isoform type VSV, stably expressing CHO cell) (Homo sapiens, UniProt P28335, I156V/I160V/N158S)
Assay: cell-based
Conditions: 1 μM

serotonin 5-HT2C receptor (isoform type VSV, stably expressing CHO cell), sequence (P28335 33-458 I156V/N158S/I160V limits assumed): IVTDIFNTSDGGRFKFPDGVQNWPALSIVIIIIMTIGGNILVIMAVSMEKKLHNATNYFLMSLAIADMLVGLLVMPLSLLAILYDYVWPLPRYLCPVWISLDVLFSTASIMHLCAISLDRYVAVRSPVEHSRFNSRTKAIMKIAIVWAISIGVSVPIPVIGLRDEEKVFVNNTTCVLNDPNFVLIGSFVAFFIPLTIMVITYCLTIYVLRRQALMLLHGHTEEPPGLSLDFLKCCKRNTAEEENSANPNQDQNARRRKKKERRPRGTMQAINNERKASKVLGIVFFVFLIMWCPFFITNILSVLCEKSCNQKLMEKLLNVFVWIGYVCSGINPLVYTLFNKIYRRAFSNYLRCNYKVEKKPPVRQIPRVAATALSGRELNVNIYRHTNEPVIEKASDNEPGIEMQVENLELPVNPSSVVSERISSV

SMILES | ratio to maximum response by 5-HT (1 μM) [%]
c1cc2c(nc1N1CCOCC1)OCCNC2 [Example 41, 8-morpholin-4-yl-2,3,4,5-tetrahydropyrido[3,2-f][1,4]oxazepine] | 83.0
c1cc2c(nc1C1CCCC1)OCCNC2 [Example 213, 8-cyclopentyl-2,3,4,5-tetrahydropyrido[3,2-f][1,4]oxazepine] | 96.6
Br.CC1CCC(C)N1c1ccc2c(n1)OCCNC2 (centres unmarked) [Example 156, 8-(2,5-dimethylpyrrolidin-1-yl)-2,3,4,5-tetrahydropyrido[3,2-f][1,4]oxazepine monohydrobromide] | 93.4

Same assay, conditions: 1 μM; dihydrochloride

SMILES | ratio to maximum response by 5-HT (1 μM) [%]
CCC(C)N(C)c1ccc2c(n1)OCCNC2 (centres unmarked) [Example 173, N-(sec-butyl)-N-methyl-2,3,4,5-tetrahydropyrido[3,2-f][1,4]oxazepin-8-amine dihydrochloride] | 95.1

Same assay, conditions: 1 μM; monohydrobromide

SMILES | ratio to maximum response by 5-HT (1 μM) [%]
c1cc2c(nc1N1CCOCC1)OCCNC2 [Example 148, 8-morpholin-4-yl-2,3,4,5-tetrahydropyrido[3,2-f][1,4]oxazepine monohydrobromide] | 93.5
CC(C)N(C)c1ccc2c(n1)OCCNC2 [Example 178, N-isopropyl-N-methyl-2,3,4,5-tetrahydropyrido[3,2-f][1,4]oxazepin-8-amine monohydrobromide] | 94.6

Same assay, conditions: 1 μM; monohydrochloride

SMILES | ratio to maximum response by 5-HT (1 μM) [%]
CCC(C)N(C)c1ccc2c(n1)OCCNC2 (centres unmarked) [Example 172, N-(sec-butyl)-N-methyl-2,3,4,5-tetrahydropyrido[3,2-f][1,4]oxazepin-8-amine monohydrochloride] | 95.3

Same assay, conditions: CHO, read-out: ratio to maximum response by 5-HT; read-out: ratio to maximum response by 5-HT (1 μM)

SMILES | Emax [%]
CC(C)c1ccc2c(n1)OCCNC2 [Example 205, 8-isopropyl-2,3,4,5-tetrahydropyrido[3,2-f][1,4]oxazepine dihydrochloride] | 93.5
c1cc2c(nc1N1CCCCC1)OCCNC2 [Example 40, 8-piperidin-1-yl-2,3,4,5-tetrahydropyrido[3,2-f][1,4]oxazepine] | 80.8
c1ccc(CCCCN2CCN(c3ccc4c(n3)OCCNC4)CC2)cc1 [Example 67, 8-[4-(4-phenylbutyl)piperazin-1-yl]-2,3,4,5-tetrahydropyrido[3,2-f][1,4]oxazepine tris(trifluoroacetate)] | 124
CC1CNCc2ccc(N3CCN(C(=O)OC(C)(C)C)CC3)nc2O1 (centres unmarked) [Example 126, tert-butyl 4-(2-methyl-2,3,4,5-tetrahydropyrido[3,2-f][1,4]oxazepin-8-yl)piperazine-1-carboxylate] | 109
C[C@@H]1CNCc2ccc(N3CCOCC3)nc2O1 [Example 130, (+)-2-methyl-8-morpholin-4-yl-2,3,4,5-tetrahydropyrido[3,2-f][1,4]oxazepine] | 105
CCC(C)N(C)c1ccc2c(n1)OCCNC2 (centres unmarked) [Example 171, N-(sec-butyl)-N-methyl-2,3,4,5-tetrahydropyrido[3,2-f][1,4]oxazepin-8-amine monohydrobromide] | 99.6
Fc1ccc(-c2ccc3c(n2)OCCNC3)cc1 [Example 81, 8-(4-fluorophenyl)-2,3,4,5-tetrahydropyrido[3,2-f][1,4]oxazepine bis(trifluoroacetate)] | 92.1
CCN(CC)c1ccc2c(n1)OCCNC2 [Example 44, N,N-diethyl-2,3,4,5-tetrahydropyrido[3,2-f][1,4]oxazepin-8-amine bis(trifluoroacetate)] | 95.1
CC1CCC(C)N1c1ccc2c(n1)OCCNC2 (centres unmarked) [Example 155, 8-(2,5-dimethylpyrrolidin-1-yl)-2,3,4,5-tetrahydropyrido[3,2-f][1,4]oxazepine] | 85.4
c1cc2c(nc1C1CCC1)OCCNC2 [Example 211, 8-cyclobutyl-2,3,4,5-tetrahydropyrido[3,2-f][1,4]oxazepine dihydrochloride] | 98
COC(=O)c1ccc(-c2ccc3c(n2)OCCNC3)cc1 [Example 102, methyl 4-(2,3,4,5-tetrahydropyrido[3,2-f][1,4]oxazepin-8-yl)benzoate bis(trifluoroacetate)] | 91.3
c1cc2c(nc1N1CCCCCC1)OCCNC2 [Example 46, 8-azepan-1-yl-2,3,4,5-tetrahydropyrido[3,2-f][1,4]oxazepine bis(trifluoroacetate)] | 100
CC1CCCCN1c1ccc2c(n1)OCCNC2 (centres unmarked) [Example 49, 8-(2-methylpiperidin-1-yl)-2,3,4,5-tetrahydropyrido[3,2-f][1,4]oxazepine bis(trifluoroacetate)] | 89.5
c1cc2c(nc1N1CCCC1)OCCNC2 [Example 43, 8-pyrrolidin-1-yl-2,3,4,5-tetrahydropyrido[3,2-f][1,4]oxazepine bis(trifluoroacetate)] | 97
CC(C)N(C)c1ccc2c(n1)OCCNC2 [Example 177, N-isopropyl-N-methyl-2,3,4,5-tetrahydropyrido[3,2-f][1,4]oxazepin-8-amine] | 91.5
C[C@H]1CNCc2ccc(N3CCOCC3)nc2O1 [Example 131, (−)-2-methyl-8-morpholin-4-yl-2,3,4,5-tetrahydropyrido[3,2-f][1,4]oxazepine] | 94.2
c1cc2c(nc1C1CCCC1)OCCNC2 [Example 212, 8-cyclopentyl-2,3,4,5-tetrahydropyrido[3,2-f][1,4]oxazepine dihydrochloride] | 91.9
CSc1ccc(-c2ccc3c(n2)OCCNC3)cc1 [Example 96, 8-[4-(methylthio)phenyl]-2,3,4,5-tetrahydropyrido[3,2-f][1,4]oxazepine bis(trifluoroacetate)] | 90.3
CC1CNCc2ccc(N3CCOCC3)nc2O1 (centres unmarked) [Example 128, 2-methyl-8-morpholin-4-yl-2,3,4,5-tetrahydropyrido[3,2-f][1,4]oxazepine] | 107
c1cc2c(nc1N1CCOCC1)OCCNC2 [Example 147, 8-morpholin-4-yl-2,3,4,5-tetrahydropyrido[3,2-f][1,4]oxazepine monohydrochloride] | 93.9
c1cc(-c2ccc3c(n2)OCCNC3)co1 [Example 112, 8-(3-furyl)-2,3,4,5-tetrahydropyrido[3,2-f][1,4]oxazepine bis(trifluoroacetate)] | 93
FC(F)(F)Oc1ccc(-c2ccc3c(n2)OCCNC3)cc1 [Example 104, 8-[4-(trifluoromethoxy)phenyl]-2,3,4,5-tetrahydropyrido[3,2-f][1,4]oxazepine bis(trifluoroacetate)] | 94.6
CC1CNCc2ccc(N3CCCCC3)nc2O1 (centres unmarked) [Example 129, 2-methyl-8-piperidin-1-yl-2,3,4,5-tetrahydropyrido[3,2-f][1,4]oxazepine] | 111
c1ccc(CCN2CCN(c3ccc4c(n3)OCCNC4)CC2)cc1 [Example 58, 8-[4-(2-phenylethyl)piperazin-1-yl]-2,3,4,5-tetrahydropyrido[3,2-f][1,4]oxazepine tris(trifluoroacetate)] | 87.1
CC(C)(C)OC(=O)N1CCN(c2nc3c(cc2F)CNCCO3)CC1 [Example 122, tert-butyl 4-(7-fluoro-2,3,4,5-tetrahydropyrido[3,2-f][1,4]oxazepin-8-yl)piperazine-1-carboxylate] | 110
c1cc2c(nc1C1CC1)OCCNC2 [Example 210, 8-cyclopropyl-2,3,4,5-tetrahydropyrido[3,2-f][1,4]oxazepine dihydrochloride] | 108
CC(C)(C)OC(=O)N1CCN(c2ccc3c(n2)OCCNC3)CC1 [Example 30, tert-butyl 4-(2,3,4,5-tetrahydropyrido[3,2-f][1,4]oxazepin-8-yl)piperazine-1-carboxylate] | 99.4
Clc1ccc(-c2ccc3c(n2)OCCNC3)cc1 [Example 79, 8-(4-chlorophenyl)-2,3,4,5-tetrahydropyrido[3,2-f][1,4]oxazepine] | 91.1

System: female spinal cord-transected rats with bilaterally transected hypogastric nerve and pudendal nerve
Assay: Reflex urethral closure response induced by increased intravesical pressure, with hypogastric and pudendal nerves bilaterally transected
Conditions: 1 mg/kg i.v.; 10 min after administration; intravesical pressure raised to 50 cmH2O; mean ± SEM, n = 5
Procedure: Female SD rats (body weight 200-310 g) were anesthetized with urethane (Wako Pure Chemical Industries, Ltd.), and the spinal cord was transected at T8-9 level to eliminate the micturition reflex. During the operation, halothane (Takeda Pharmaceutical Company Limited) anesthesia was added when necessary. After abdominal section, bladder neck was ligated with a suture thread, and then the hypogastric nerve and pudendal nerve were bilaterally transected. A catheter (PE-90, Clay Adams) was placed in the bladder, and the other end of the bladder catheter was connected to a pressure transducer and a water reservoir (60 ml syringe) of saline via a three-way cock. A microchip transducer catheter (SPR-524, Millar Instruments Inc.) was inserted toward the bladder from the urethral opening, and adjusted using a scale on the catheter surface so that the transducer part is positioned in the urinary tract at 10.0-15.0 mm from the urethral opening.
The changes in the topical pressure within the urinary tract (hereinafter conveniently indicated as urethral internal pressure) as measured by the microchip transducer was transmitted to a computer via an amplifier (blood pressure amplification unit AP-641G; NIHON KOHDEN) and an analog-to-digital converter (MP-100; biopack; sampled at 500 Hz), and recorded on a hard disc. […] The reaction of the urinary tract induced by an increased intravesical pressure was measured 3 times, and the average of the last 2 measures was taken as the value before drug administration. The evaluation item was reflex urethral closure response, and the recorded values were subjected to smoothing process at 500 points to calculate an average urethral internal pressure per 1 sec, after which the value immediately before increase of the intravesical pressure was subtracted from the maximum value on increase of the intravesical pressure and taken as the urethral closure response. […] The drugs were all dissolved in N,N-dimethylformamide/polyethylene glycol 400 (1:1) and administered intravenously at a dose of 0.5 ml/kg.

SMILES | urethral closure response (cmH2O) after drug administration [cmH2O]
C[C@H]1CNCCc2ccc(Cl)cc21.Cl [APD-356] | 8.6 ± 2.7
c1cc2c(nc1N1CCOCC1)OCCNC2 [Example 41, 8-morpholin-4-yl-2,3,4,5-tetrahydropyrido[3,2-f][1,4]oxazepine] | 7.5 ± 1.6

Same assay, conditions: 3 mg/kg i.v.; 10 min after administration; intravesical pressure raised to 50 cmH2O; mean ± SEM, n = 5

SMILES | urethral closure response (cmH2O) after drug administration [cmH2O]
c1cc2c3c(c1)[C@H]1CCC[C@H]1N3CCNC2 [WAY-163909] | 10.2 ± 1.6

Same assay, conditions: baseline of the 1 mg/kg i.v. group; intravesical pressure raised to 50 cmH2O; mean ± SEM, n = 5

SMILES | urethral closure response (cmH2O) before drug administration [cmH2O]
C[C@H]1CNCCc2ccc(Cl)cc21.Cl [APD-356] | 5.3 ± 1.7
c1cc2c(nc1N1CCOCC1)OCCNC2 [Example 41, 8-morpholin-4-yl-2,3,4,5-tetrahydropyrido[3,2-f][1,4]oxazepine] | 4.6 ± 0.8

Same assay, conditions: baseline of the 3 mg/kg i.v. group; intravesical pressure raised to 50 cmH2O; mean ± SEM, n = 5

SMILES | urethral closure response (cmH2O) before drug administration [cmH2O]
c1cc2c3c(c1)[C@H]1CCC[C@H]1N3CCNC2 [WAY-163909] | 4.4 ± 0.8

Same assay, conditions: i.v.; female spinal cord-transected rats with hypogastric and pudendal nerves bilaterally transected

SMILES | action on the urethral closure response induced by the increased intravesical pressure (in words)
C[C@H]1CNCCc2ccc(Cl)cc21.Cl [APD-356] | enhanced the urethral closure response
c1cc2c(nc1N1CCOCC1)OCCNC2 [Example 41, 8-morpholin-4-yl-2,3,4,5-tetrahydropyrido[3,2-f][1,4]oxazepine] | enhanced the urethral closure response
c1cc2c3c(c1)[C@H]1CCC[C@H]1N3CCNC2 [WAY-163909] | enhanced the urethral closure response
